Here are results for 26 compounds from article PMC4977052, “On the Utility of ToxCast™ and ToxPi as Methods for Identifying New Obesogens” (Environmental Health Perspectives, 2016).

Read-outs that look alike come from different tables or passages of the source.

The test system of experiment [1] is PPARγ. Particulars: cited from earlier work.
The subject of experiment [2] is PPARγ. Particulars: ToxCast 2014 release, ref Filer et al. 2014, cited from earlier work.
The test system of the next experiment is Human PPARγ. The following applies: cited from earlier work.
The target in another experiment is T1, GAL4-mPPARγ (Mus musculus, UniProt P37238).
T1 construct: expressed in transfected cells; host or cells: COS7
Nature of the experiment: GAL4-mPPARγ activation, transient transfection luciferase reporter in COS7 cells. It is filed as cell-based. How it is done: pCMX-Gal4, pCMX-Gal4-mPPARγ, and pCMX-Gal4-hRXRα were previously described ([Grün et al. 2006]). Transient transfections were performed in COS7 cells as described ([Chamorro-García et al. 2012]). Briefly, COS7 cells were seeded at 15,000 cells per well in 96-well tissue culture plates in 10% calf bovine serum. The following day, cells were transfected in Opti-MEM at ~ 90% confluency. One microgram of CMX-GAL4 effector plasmid was co-transfected with 5 μg tk-(MH100)4-luciferase reporter and 5 μg of CMX-β-galactosidase transfection control plasmids in Opti-MEM® using Lipofectamine® 2000 reagent (Invitrogen™ Life Technologies, Carlsbad, CA, USA), following the manufacturer’s recommended protocol. All chemicals were solvated in dimethyl sulfoxide (DMSO). After overnight incubation, the medium was replaced with Dulbecco’s Modified Eagle Medium (DMEM; HyClone, Logan, UT, USA), 10% resin charcoal stripped fetal bovine serum (FBS) plus ligands at concentrations indicated in the figure legends for an additional 24 hr. DMSO concentration was maintained at 0.05% across all chemical treatments. Cells were lysed and assayed for luciferase and β-galactosidase activity as previously described ([Forman et al. 1995]). All transfections were performed in triplicate and reproduced in multiple experiments. Data are reported as fold induction or reduction over vehicle ([…]) controls ± SEM (standard error of the mean) using standard propagation of error ([Bevington and Robinson 2003]). […] The EC50, EC10, IC50, and IC10 values from NCGC and ToxCast™ are reported from gain AC50 and AC10 values in the ToxCast™ 2014 release ([Filer et al. 2014]).
Figure 1 ToxCast™ Chemical Activity on PPARγ. The ability of a graded dose series of ToxCast™ chemicals to (A) activate or (B) antagonize GAL4-mPPARγ was tested in transiently transfected COS7 cells. (A, B) Data points are averages of triplicate transfections (three biological replicates). […] Data are depicted as (A) fold induction or (B) reduction over vehicle (0.05% DMSO) controls ± SEM. (A) ToxCast™ chemicals were tested in 3-fold serial dilutions from 100 μM through 0.137 μM, with the final data point being 0.05% DMSO. Rosiglitazone serves as a positive control activator. (B) ToxCast™ chemicals were tested in 3-fold serial dilutions from 100 μM, in competition with 50 nM rosiglitazone (Rosi). […] (C) EC50, EC10, IC50, and IC10 values calculated from A and B are reported and compared to commercial assays (see Figure S1). Note: ATG, Attagene GAL-PPARγ activation assay; NCGC, GeneBLAzer® agonist (EC values) or antagonist (IC values) assays. Triphenyltin was previously published ([Kanayama et al. 2005]).
Figure 4 ToxPi Chemical Activity on PPARγ and RXRα. The ability of a graded dose series of ToxPi chemicals to activate (A) GAL4-mPPARγ or (B) GAL4-hRXRα was tested in transiently transfected COS7 cells. (A, B) Data points are averages of triplicate transfections (three biological replicates). […] ToxPi chemicals were tested in 3-fold serial dilutions from 100 μM through 0.137 μM, with the final data point being 0.05% DMSO. Data are depicted as fold induction over vehicle (0.05% DMSO) controls ± SEM. (A) Rosiglitazone serves as a positive control activator for GAL4-mPPARγ. (B) LG100268 (2-[1-(3,5,5,8,8-Pentamethyl-5,6,7,8-tetrahydro-2-naphthyl)cyclopropyl]pyridine-5-carboxylic acid) serves as a positive control activator for GAL4-hRXRα. (C) EC50 and EC10 values calculated from A and B are reported and compared to other assays (see Figure S1). ATG, Attagene GAL-PPARγ or GAL-RXRα activation assay; NCGC, GeneBLAzer® GAL-PPARγ or GAL-RXRα activation assays. Triphenyltin was previously published ([Kanayama et al. 2005]).
(In general: Reporter assays use an easily measured gene product as a stand-in for the process of interest.)

[3] abbreviates: ToxCast 2014 release, ref Filer et al. 2014, read-out: Attagene AC50 (panel B, with Z-Score Correction ranking).
The mark [4] stands for this setting: read-out: Tox21/NCGC AC50 (panel B).
[5] abbreviates: ToxCast 2014 release, ref Filer et al. 2014, read-out: Attagene AC50 (panel A, w/o Z-Score Correction ranking).
The mark [6] stands for this setting: direct binding, ToxCast 2014 release, ref Filer et al. 2014, read-out: NovaScreen AC50 (panel A).
Setting [7] is: direct binding, ToxCast 2014 release, ref Filer et al. 2014, read-out: NovaScreen AC50 (panel B).
[8] abbreviates: read-out: Tox21/NCGC AC50 (panel A).

T1 sequence (P37238 with tags, fused parts or gaps limits assumed): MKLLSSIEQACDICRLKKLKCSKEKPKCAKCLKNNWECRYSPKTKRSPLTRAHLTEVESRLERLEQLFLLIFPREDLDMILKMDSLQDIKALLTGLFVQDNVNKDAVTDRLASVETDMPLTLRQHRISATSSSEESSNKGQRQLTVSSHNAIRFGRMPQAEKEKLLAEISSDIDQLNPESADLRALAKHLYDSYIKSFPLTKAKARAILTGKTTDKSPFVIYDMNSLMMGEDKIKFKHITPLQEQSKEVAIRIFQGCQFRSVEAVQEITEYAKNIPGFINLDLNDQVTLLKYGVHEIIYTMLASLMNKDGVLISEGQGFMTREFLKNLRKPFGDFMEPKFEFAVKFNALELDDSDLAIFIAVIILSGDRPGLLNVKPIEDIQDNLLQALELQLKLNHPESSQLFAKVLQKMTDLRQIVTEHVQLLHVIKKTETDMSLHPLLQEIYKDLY

For the compound `O=C(O)CCCOc1ccc(Cl)cc1Cl` [2,4-DB], the AC50 in the experiment on PPARγ [1] (setting [3]) was 33.4 µM; in the experiment with PPARγ [2] (setting [4]), 16.7 µM.
In the case of `Oc1ccccc1-c1ccccc1` [2-Phenylphenol], the AC50 in the experiment on PPARγ [1] (setting [5]) is 0.1 µM; in the experiment on PPARγ [1] (setting [3]) it was 0.1 µM; with Human PPARγ (setting [6]) it was 1.1 µM; in the experiment on Human PPARγ (setting [7]), 1.1 µM.
Turning to `O=C(O)c1cc(Oc2ccc(C(F)(F)F)cc2Cl)ccc1[N+](=O)[O-]` [Acifluorfen], the AC50 in the experiment with PPARγ [1] (setting [3]) is 37.1 µM; in the experiment with Human PPARγ (setting [7]) it was 13.5 µM.
For the compound `CCNc1nc(NC(C)C)nc(SC)n1` [Ametryn], the values for the AC50 in the experiment on PPARγ [1] (setting [5]), in the experiment on Human PPARγ (setting [6]) and with PPARγ [2] (setting [8]) were 15.1 µM, 31.8 µM and 10.2 µM, respectively.
For the compound `CCOc1nc(F)cc2nc(S(=O)(=O)Nc3c(Cl)cccc3Cl)nn12` [Diclosulam], the AC50 with PPARγ [1] (setting [3]) is 26.3 µM; in the experiment on PPARγ [2] (setting [4]) it was 2.9 µM.
Take `CCOP(=S)(OCC)SCCSCC` [Disulfoton]: the AC50 with PPARγ [1] (setting [3]) is 81.8 µM; in the experiment with Human PPARγ (setting [7]), 1.6 µM.
On to `CCCSP(=O)(OCC)SCCC` [Ethoprop], for which the AC50 is 114 µM with PPARγ [1] (read-out: Attagene AC50 (panel B, with Z-Score Correction ranking)) and 3.9 µM in the experiment on Human PPARγ (read-out: NovaScreen AC50 (panel B)).
With `CCOP(=O)(NC(C)C)Oc1ccc(SC)c(C)c1` (stereo not shown) [Fenamiphos], the AC50 in the experiment with PPARγ [1] (setting [5]) is 35.1 µM; in the experiment with PPARγ [1] (setting [3]) it was 35.1 µM; with Human PPARγ (setting [6]), 21.2 µM; in the experiment with Human PPARγ (setting [7]), 21.2 µM; in the experiment with PPARγ [2] (setting [8]), 14.7 µM; with PPARγ [2] (setting [4]), 14.7 µM.
For the compound `N#Cc1nn(-c2c(Cl)cc(C(F)(F)F)cc2Cl)c(N)c1[S+]([O-])C(F)(F)F` (stereo not shown) [Fipronil], in the experiment with PPARγ [1] (setting [5]), the AC50 is 39.3 µM.
`CCCCOC(=O)C(C)Oc1ccc(Oc2ccc(C(F)(F)F)cn2)cc1` (stereo not shown) [Fluazifop-butyl]: the AC50 in the experiment with PPARγ [1] (setting [3]) was 2.8 µM; in the experiment with Human PPARγ (setting [7]), 0.7 µM.
For `CC(C)Oc1cccc(NC(=O)c2ccccc2C(F)(F)F)c1` [Flutolanil], the values for the AC50 with PPARγ [1] (setting [5]), in the experiment with Human PPARγ (setting [6]) and with PPARγ [2] (setting [8]) were 8.5 µM, 10.3 µM and 34.1 µM, respectively.
For `CCCCC(O)(Cn1cncn1)c1ccc(Cl)cc1Cl` (stereo not shown) [Hexaconazole], the AC50 was 1.2 µM in the experiment on PPARγ [1] (setting [5]), 0.3 µM in the experiment on Human PPARγ (setting [6]) and 0.1 µM in the experiment on PPARγ [2] (setting [8]).
On to `CC(C)NC(=O)N1CC(=O)N(c2cc(Cl)cc(Cl)c2)C1=O` [Iprodione], for which the AC50 in the experiment with PPARγ [1] (setting [5]) is 20.9 µM; with PPARγ [1] (setting [3]) it was 20.9 µM; in the experiment on Human PPARγ (setting [6]), 2.4 µM; with Human PPARγ (setting [7]), 2.4 µM; in the experiment on PPARγ [2] (setting [8]), 45.5 µM; in the experiment with PPARγ [2] (setting [4]), 45.5 µM.
Consider `CS(=O)(=O)c1cc(C(F)(F)F)ccc1C(=O)c1cnoc1C1CC1` [Isoxaflutole], for which the AC50 was 10.4 µM in the experiment with PPARγ [1] (setting [3]) and 26.4 µM in the experiment on PPARγ [2] (setting [4]).
On to `CCCCOC(=O)c1ccccc1C(=O)O` [MBP], for which the AC50 was 18.2 µM with PPARγ [1] (setting [3]) and 0.1 µM in the experiment on Human PPARγ (setting [7]).
On to `Cc1cc(Cl)ccc1OCC(=O)O` [MCPA], for which the AC50 in the experiment on PPARγ [1] (setting [5]) was 33.8 µM; in the experiment with PPARγ [1] (setting [3]), 33.8 µM; in the experiment on Human PPARγ (setting [6]), 0.1 µM; with Human PPARγ (setting [7]), 0.1 µM; in the experiment with PPARγ [2] (setting [8]), 253 µM; in the experiment on PPARγ [2] (setting [4]), 253 µM.
For the compound `CCCCC(CC)COC(=O)c1ccccc1C(=O)O` (stereo not shown) [MEHP], the AC50 in the experiment with PPARγ [1] (setting [5]) is […]; in the experiment on Human PPARγ (setting [6]) it was […]; with PPARγ [2] (setting [8]) it was […].
For the compound `COc1nn(CSP(=S)(OC)OC)c(=O)s1` [Methidathion], the AC50 in the experiment on PPARγ [1] (setting [5]) is 30.6 µM; with PPARγ [1] (setting [3]) it was 30.6 µM; in the experiment on Human PPARγ (setting [6]), 0.1 µM; in the experiment on Human PPARγ (setting [7]) it was 0.1 µM.
Consider `CCSC(=O)N1CCCCCC1` [Molinate], for which the AC50 in the experiment on PPARγ [1] (setting [3]) is 41.3 µM; with Human PPARγ (setting [7]), 0.1 µM.
For `O=C(O)c1c(Cl)ccc2cc(Cl)cnc12` [Quinclorac], the AC50 is 0.03 µM with PPARγ [1] (setting [3]) and 0.0002 µM with Human PPARγ (setting [7]).
For `C=CCC1=C(C)[C@@H](OC(=O)[C@@H]2[C@@H](C=C(C)C)C2(C)C)CC1=O` [S-Bioallethrin], the “Activation COS7 (result in words), ToxCast PPARγ list” value on GAL4-mPPARγ (Cos-7 transient transfection, PPARγ activation or antagonism assays (Table 1, Table S6)) is reported as “Inactive”. For the same compound, the AC50 with PPARγ [1] (PPARγ, NA = not active, ref Filer et al. 2014, read-out: ATG Agonist AC50, 2014 Release) is 9.2 µM; in the experiment with PPARγ [1] (PPARγ, NA = not active, ref Knudsen et al. 2011, read-out: ATG Agonist AC50, 2011 Release) it was 9.2 µM.
Regarding `CCNc1nc(Cl)nc(NCC)n1` [Simazine], the results for the AC50 in the experiment with PPARγ [1] (setting [3]) and with Human PPARγ (setting [7]) were 116 µM and 1.5 µM, respectively.
Consider `CC(C)=CC1C(C(=O)OCN2C(=O)C3=C(CCCC3)C2=O)C1(C)C` (stereo not shown) [Tetramethrin], for which the AC50 in the experiment on PPARγ [1] (setting [5]) was 0.02 µM; in the experiment on Human PPARγ (setting [6]) it was 0.3 µM; with PPARγ [2] (setting [8]), 21.6 µM.
On to `COP(=O)(OC)C(O)C(Cl)(Cl)Cl` (stereo not shown) [Trichlorfon], for which the AC50 was 58.4 µM in the experiment with PPARγ [1] (setting [5]) and 0.05 µM in the experiment on PPARγ [2] (setting [8]).
`O=C(O)COc1nc(Cl)c(Cl)cc1Cl` [Triclopyr]: the AC50 in the experiment with PPARγ [1] (setting [5]) is 54.7 µM; in the experiment on PPARγ [1] (setting [3]) it was 54.7 µM; in the experiment on Human PPARγ (setting [6]), 2.1 µM; in the experiment on Human PPARγ (setting [7]), 2.1 µM; with PPARγ [2] (setting [8]) it was 41.5 µM; in the experiment on PPARγ [2] (setting [4]) it was 41.5 µM.
On to `Oc1cc(Cl)ccc1Oc1ccc(Cl)cc1Cl` [Triclosan], for which, at GAL4-mPPARγ (COS7, 100 μM through 0.137 μM), the “Activation of GAL4-PPARγ (text)” value was “inactive”. The AC50 in the experiment with PPARγ [1] (setting [5]) was 8.6 µM; in the experiment on Human PPARγ (setting [6]), 7.1 µM; in the experiment with PPARγ [2] (setting [8]), 25.8 µM.
